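Test compounds were applied to cells in 96-well plates for 48 hours at 5 doses. Abbreviation: GI50, concentration required for 50% inhibition of growth.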 The source made the active and inactive calls. Cut-off read from the data, not from the text of the source: active = GI50 up to about 1.1 µM and inactive = higher.
Key:
Test in all cases: inhibition of tumour cell growth, NCI panel, 48 h
786-0 = tested on: 786-0
A549 = tested on: A549
Hs-578T = tested on: Hs-578T
K562 = tested on: K562
KM12 = tested on: KM12
MCF7 = tested on: MCF7
MOLT-4 = tested on: MOLT-4
NCI-H226 = tested on: NCI-H226
NCI-H23 = tested on: NCI-H23
NCI-H522 = tested on: NCI-H522
OVCAR-8 = tested on: OVCAR-8
PC-3 = tested on: PC-3
RPMI-8226 = tested on: RPMI-8226
RXF 393 = tested on: RXF 393
SK-MEL-28 = tested on: SK-MEL-28
SK-MEL-2 = tested on: SK-MEL-2
SN12C = tested on: SN12C
SNB-19 = tested on: SNB-19
SW-620 = tested on: SW-620
UACC-257 = tested on: UACC-257

Measured: GI50

COC(=O)C1=C(C)NC(C)=C([N+](=O)[O-])C1c1cccc(NO)c1 (stereo not given)
inactive: 786-0 4.48 µM | A549 3.86 µM | Hs-578T 2.84 µM | K562 2.72 µM | KM12 2.54 µM | MCF7 3.94 µM | MOLT-4 3.46 µM | NCI-H226 7.28 µM | NCI-H23 4.94 µM | NCI-H522 3.67 µM | OVCAR-8 5.81 µM | PC-3 2.94 µM | RPMI-8226 2.51 µM | RXF 393 6.5 µM | SK-MEL-28 4.92 µM | SK-MEL-2 11.2 µM | SN12C 4.75 µM | SNB-19 6.65 µM | SW-620 4.17 µM | UACC-257 4.61 µM

COc1cc(OC)c(OC)cc1/C=N/N=C(\N)NO
inactive: 786-0 > 100 µM | A549 > 100 µM | Hs-578T > 100 µM | K562 88.7 µM | KM12 18.5 µM | MCF7 > 100 µM | MOLT-4 > 100 µM | NCI-H226 61.4 µM | NCI-H23 > 100 µM | NCI-H522 > 100 µM | OVCAR-8 > 100 µM | PC-3 > 100 µM | RPMI-8226 68.9 µM | RXF 393 > 100 µM | SK-MEL-28 > 100 µM | SK-MEL-2 99.8 µM | SN12C > 100 µM | SNB-19 > 100 µM | SW-620 > 100 µM | UACC-257 > 100 µM

CS(=O)(=O)Nc1ccc2ccccc2c1-c1c(NS(C)(=O)=O)ccc2ccccc12
inactive: 786-0 > 15.5 µM | A549 > 25 µM | Hs-578T > 25 µM | K562 > 25 µM | KM12 > 25 µM | MCF7 1.17 µM | MOLT-4 > 25 µM | NCI-H226 > 25 µM | NCI-H23 > 25 µM | NCI-H522 > 25 µM | OVCAR-8 > 25 µM | PC-3 > 25 µM | RPMI-8226 > 25 µM | RXF 393 > 21.5 µM | SK-MEL-28 > 25 µM | SK-MEL-2 > 25 µM | SN12C > 25 µM | SNB-19 > 25 µM | SW-620 > 25 µM | UACC-257 > 25 µM

Nc1nc(-c2ccc3ccccc3c2)cc(-c2cc(-c3ccc4ccccc4c3)nc(N)n2)n1
inactive: 786-0 > 100 µM | A549 > 100 µM | Hs-578T > 100 µM | K562 > 100 µM | KM12 > 100 µM | MCF7 > 100 µM | MOLT-4 > 100 µM | NCI-H226 > 100 µM | NCI-H23 > 100 µM | NCI-H522 > 100 µM | OVCAR-8 > 100 µM | PC-3 > 100 µM | RPMI-8226 > 100 µM | RXF 393 > 100 µM | SK-MEL-28 > 100 µM | SK-MEL-2 > 100 µM | SN12C > 100 µM | SNB-19 > 100 µM | SW-620 > 100 µM | UACC-257 > 100 µM

CCOC(=O)c1ccc(C(=O)OCC)n1-c1cc2cc(c1)CSCc1cc(cc(-n3c(C(=O)OCC)ccc3C(=O)OCC)c1)CSC2
inactive: 786-0 > 10 µM | A549 > 10 µM | Hs-578T > 10 µM | K562 > 10 µM | KM12 > 10 µM | MCF7 > 10 µM | MOLT-4 > 10 µM | NCI-H226 > 10 µM | NCI-H23 > 10 µM | NCI-H522 > 10 µM | OVCAR-8 > 10 µM | PC-3 > 10 µM | RPMI-8226 > 10 µM | RXF 393 > 10 µM | SK-MEL-28 > 10 µM | SK-MEL-2 > 10 µM | SN12C > 10 µM | SNB-19 > 10 µM | SW-620 > 10 µM | UACC-257 > 10 µM

C[C@]12CC[C@H](O)C=C1CC[C@@H]1[C@@H]2CC[C@]2(C)C(=N/O)/C(=C/c3ccncc3)C[C@@H]12
inactive: 786-0 12.9 µM | A549 5.19 µM | Hs-578T 19.4 µM | K562 5.13 µM | KM12 8 µM | MCF7 3.87 µM | MOLT-4 4.43 µM | NCI-H226 10.2 µM | NCI-H23 16.1 µM | NCI-H522 9.35 µM | OVCAR-8 16 µM | PC-3 2.65 µM | RPMI-8226 3.78 µM | RXF 393 5.87 µM | SK-MEL-28 19.7 µM | SK-MEL-2 10.3 µM | SN12C 12.1 µM | SNB-19 11.9 µM | SW-620 23 µM | UACC-257 7.67 µM

COc1cc2c(cc1OCc1ccccc1)NC(=O)[C@@H]1CCCN1C2=O
inactive: 786-0 > 100 µM | A549 > 100 µM | Hs-578T > 100 µM | K562 > 100 µM | KM12 > 100 µM | MCF7 > 100 µM | MOLT-4 > 100 µM | NCI-H226 > 100 µM | NCI-H23 > 100 µM | NCI-H522 > 100 µM | OVCAR-8 > 100 µM | PC-3 > 100 µM | RPMI-8226 > 100 µM | RXF 393 82 µM | SK-MEL-28 > 100 µM | SK-MEL-2 > 100 µM | SN12C > 100 µM | SNB-19 > 100 µM | SW-620 > 100 µM | UACC-257 > 100 µM
